# Test results as given in patent US20110172147A1, “NEUROPEPTIDE-2 RECEPTOR (Y-2R) AGONISTS” (priority 2009, published 2011).
# Columns and labels:
# Assay type in all cases: cell-based
# Y5R = target: T1, Y5R (Homo sapiens, UniProt Q15761); assay: CaFlux Assay (FLIPR), Y5R
# T1 sequence (Q15761 1-445): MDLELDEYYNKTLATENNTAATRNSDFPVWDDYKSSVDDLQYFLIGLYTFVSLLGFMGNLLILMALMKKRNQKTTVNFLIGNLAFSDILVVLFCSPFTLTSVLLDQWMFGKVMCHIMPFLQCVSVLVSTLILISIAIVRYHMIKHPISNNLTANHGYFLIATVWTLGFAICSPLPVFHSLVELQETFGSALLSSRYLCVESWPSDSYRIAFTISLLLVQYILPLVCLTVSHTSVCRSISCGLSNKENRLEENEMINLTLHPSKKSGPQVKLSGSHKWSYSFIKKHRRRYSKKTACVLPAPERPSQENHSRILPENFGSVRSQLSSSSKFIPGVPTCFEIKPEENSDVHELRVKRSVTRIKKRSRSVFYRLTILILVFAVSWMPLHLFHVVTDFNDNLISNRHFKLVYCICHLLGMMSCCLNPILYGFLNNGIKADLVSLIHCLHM
# hNPY2R [1] = target: T2, hNPY2R (Homo sapiens, UniProt P49146); assay: CaFlux Assay (FLIPR), Y2R; design: expressed in transfected cells; host or cells: HEK-293 stably transfected with G protein chimera Gαqi9
# T2 sequence (P49146 1-381): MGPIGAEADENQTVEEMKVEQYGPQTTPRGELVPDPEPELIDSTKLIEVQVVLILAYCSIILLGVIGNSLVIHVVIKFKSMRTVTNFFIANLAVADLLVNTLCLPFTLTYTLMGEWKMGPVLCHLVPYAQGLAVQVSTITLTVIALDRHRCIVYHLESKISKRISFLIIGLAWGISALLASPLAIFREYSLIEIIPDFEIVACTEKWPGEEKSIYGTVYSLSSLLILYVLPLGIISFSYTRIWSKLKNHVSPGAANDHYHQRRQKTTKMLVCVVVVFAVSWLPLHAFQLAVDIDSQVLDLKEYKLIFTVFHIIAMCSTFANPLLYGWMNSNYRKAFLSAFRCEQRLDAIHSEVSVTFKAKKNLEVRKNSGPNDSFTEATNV
# Summary of the method: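 HEK-293 cells stably expressing Gαqi9 and the human receptor, dye-loaded 1 h at 37° C, then compound added on FLIPR. Fluorescence read every 1.5 s for 100 s; peak increase over pre-stimulation baseline, expressed as % of positive-control maximal response.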
# Y4R = Y4R (Homo sapiens, UniProt P50391); assay: CaFlux Assay (FLIPR), Y4R
# Y1R = target: T3, Y1R (Homo sapiens, UniProt P25929); assay: CaFlux Assay (FLIPR), Y1R
# T3 sequence (P25929 1-384): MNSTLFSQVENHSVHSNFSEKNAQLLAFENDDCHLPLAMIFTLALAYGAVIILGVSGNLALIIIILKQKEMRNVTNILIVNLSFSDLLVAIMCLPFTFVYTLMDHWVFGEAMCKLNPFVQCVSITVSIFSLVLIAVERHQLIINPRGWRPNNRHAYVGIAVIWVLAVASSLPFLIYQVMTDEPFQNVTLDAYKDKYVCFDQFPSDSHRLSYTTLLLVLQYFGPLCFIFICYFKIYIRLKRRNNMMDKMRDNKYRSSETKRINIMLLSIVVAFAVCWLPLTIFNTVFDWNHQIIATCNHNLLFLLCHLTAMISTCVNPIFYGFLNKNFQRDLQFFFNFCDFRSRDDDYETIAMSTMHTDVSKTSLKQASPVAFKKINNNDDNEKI
# hNPY2R [2] = target: T2, hNPY2R; assay: cAMP Agonist Assay, HEK293/hNPY2R; design: expressed in transfected cells; host or cells: HEK293/hNPY2R (G418 selection)
# Summary of the method: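 Intracellular cAMP quantified by luminescent competitive ELISA after a 30 min room-temperature treatment of overnight-plated HEK293/hNPY2R cells with compound in medium containing 5 μM forskolin, 0.5 mM IBMX and 1.1% DMSO; four replicates per concentration.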
# Y4R, sequence (P50391 whole entry): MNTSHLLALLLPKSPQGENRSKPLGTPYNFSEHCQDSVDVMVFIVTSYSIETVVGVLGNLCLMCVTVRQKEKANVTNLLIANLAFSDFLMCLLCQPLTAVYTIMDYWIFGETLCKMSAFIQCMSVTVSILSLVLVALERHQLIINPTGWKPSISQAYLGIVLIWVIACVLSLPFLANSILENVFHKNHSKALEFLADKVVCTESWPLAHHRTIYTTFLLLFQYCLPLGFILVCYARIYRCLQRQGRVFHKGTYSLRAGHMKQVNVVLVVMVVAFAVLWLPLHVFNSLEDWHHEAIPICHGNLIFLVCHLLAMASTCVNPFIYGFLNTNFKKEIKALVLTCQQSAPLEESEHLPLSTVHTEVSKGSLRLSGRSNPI
Structure (SMILES),EC50 (Y5R) [nM],EC50 (hNPY2R [1]) [nM],EC50 (Y4R) [nM],EC50 (Y1R) [nM],EC50 (hNPY2R [2]) [nM],Y5R FLIPR agonist character (partial agonist mark) (Y5R)
CC[C@H](C)[C@H](NC(=O)CCCCCNC(=O)CCOCCOCCOCCOCCOCCOCCOCCOCCOCCOCCOCCOCCOCCOCCOCCOCCOCCOCCOCCOCCOCCOCCOCCOC)C(=O)N[C@@H](CCCCN)C(=O)N1CCN(c2ccc3ncn(CC(=O)N[C@@H](CCCNC(=N)N)C(=O)N[C@@H](Cc4c[nH]cn4)C(=O)N[C@@H](Cc4ccc(O)cc4)C(=O)N[C@@H](CC(C)C)C(=O)N[C@@H](CC(N)=O)C(=O)N[C@@H](Cc4c[nH]c5ccccc45)C(=O)N[C@H](C(=O)N[C@H](C(=O)N[C@@H](CCCNC(=N)N)C(=O)N[C@@H](CCC(N)=O)C(=O)N(C)[C@@H](CCCNC(=N)N)C(=O)N[C@@H](Cc4ccc(O)cc4)C(N)=O)[C@@H](C)O)C(C)C)c(=O)c3c2)CC1 [Example 20],> 6000,0.488,> 6000,> 6000,0.89,–
CCCCCCCCCCCCCCCCCCCC(=O)N[C@@H](CCC(=O)N[C@@H](CCC(=O)NCCCC[C@H](NC(=O)[C@@H](NC(=O)COCCOCCOC)[C@@H](C)CC)C(=O)N1CCN(c2ccc3ncn(CC(=O)N[C@@H](CCCNC(=N)N)C(=O)N[C@@H](Cc4c[nH]cn4)C(=O)N[C@@H](Cc4ccc(O)cc4)C(=O)N[C@@H](CC(C)C)C(=O)N[C@@H](CC(N)=O)C(=O)N[C@@H](Cc4c[nH]c5ccccc45)C(=O)N[C@H](C(=O)N[C@H](C(=O)N[C@@H](CCCNC(=N)N)C(=O)N[C@@H](CCC(N)=O)C(=O)N(C)[C@@H](CCCNC(=N)N)C(=O)N[C@@H](Cc4ccc(O)cc4)C(N)=O)[C@@H](C)O)C(C)C)c(=O)c3c2)CC1)C(=O)O)C(=O)O [Example 22],1510,0.298,> 6000,> 6000,0.065,–
CCCCCCCCCCCCCCCCCCCC(=O)N[C@@H](CCC(=O)N[C@@H](CCC(=O)NCCCC[C@H](NC(=O)[C@@H](NC(=O)CCOCCOCCOCCOCCOCCOCCOCCOC)[C@@H](C)CC)C(=O)N1CCN(c2ccc3ncn(CC(=O)N[C@@H](CCCNC(=N)N)C(=O)N[C@@H](Cc4c[nH]cn4)C(=O)N[C@@H](Cc4ccc(O)cc4)C(=O)N[C@@H](CC(C)C)C(=O)N[C@@H](CC(N)=O)C(=O)N[C@@H](Cc4c[nH]c5ccccc45)C(=O)N[C@H](C(=O)N[C@H](C(=O)N[C@@H](CCCNC(=N)N)C(=O)N[C@@H](CCC(N)=O)C(=O)N(C)[C@@H](CCCNC(=N)N)C(=O)N[C@@H](Cc4ccc(O)cc4)C(N)=O)[C@@H](C)O)C(C)C)c(=O)c3c2)CC1)C(=O)O)C(=O)O [Example 23],2210,0.295,> 9000,> 9000,0.05,–
CCCCCCCCCCCCCCCCCCCC(=O)N[C@@H](CCC(=O)N[C@@H](CCC(=O)NCCCC[C@H](NC(=O)[C@@H](NC(=O)CCOCCOCCOCCOCCOCCOCCOCCOCCOCCOCCOCCOCCOCCOCCOCCOC)[C@@H](C)CC)C(=O)N1CCN(c2ccc3ncn(CC(=O)N[C@@H](CCCNC(=N)N)C(=O)N[C@@H](Cc4c[nH]cn4)C(=O)N[C@@H](Cc4ccc(O)cc4)C(=O)N[C@@H](CC(C)C)C(=O)N[C@@H](CC(N)=O)C(=O)N[C@@H](Cc4c[nH]c5ccccc45)C(=O)N[C@H](C(=O)N[C@H](C(=O)N[C@@H](CCCNC(=N)N)C(=O)N[C@@H](CCC(N)=O)C(=O)N(C)[C@@H](CCCNC(=N)N)C(=O)N[C@@H](Cc4ccc(O)cc4)C(N)=O)[C@@H](C)O)C(C)C)c(=O)c3c2)CC1)C(=O)O)C(=O)O [Example 25],2580,0.14,> 9000,> 9000,0.09,P.A
CCCCCCCCCCCCCCCCCCCC(=O)N[C@@H](CCC(=O)N[C@@H](CCC(=O)NCCCC[C@H](NC(=O)[C@@H](NC(=O)CCOCCOCCOCCOCCOCCOCCOCCOCCOCCOCCOCCOCCOCCOCCOCCOCCOCCOCCOCCOCCOCCOCCOCCOC)[C@@H](C)CC)C(=O)N1CCN(c2ccc3ncn(CC(=O)N[C@@H](CCCNC(=N)N)C(=O)N[C@@H](Cc4c[nH]cn4)C(=O)N[C@@H](Cc4ccc(O)cc4)C(=O)N[C@@H](CC(C)C)C(=O)N[C@@H](CC(N)=O)C(=O)N[C@@H](Cc4c[nH]c5ccccc45)C(=O)N[C@H](C(=O)N[C@H](C(=O)N[C@@H](CCCNC(=N)N)C(=O)N[C@@H](CCC(N)=O)C(=O)N(C)[C@@H](CCCNC(=N)N)C(=O)N[C@@H](Cc4ccc(O)cc4)C(N)=O)[C@@H](C)O)C(C)C)c(=O)c3c2)CC1)C(=O)O)C(=O)O [Example 26],1920,0.01,> 9000,> 9000,0.1,P.A
CCCCCCCCCCCCCCCC(=O)NCCCCCC(=O)N[C@H](C(=O)N[C@@H](CCCCNC(=O)CCOCCOCCOCCOCCOCCOCCOCCOC)C(=O)N1CCN(c2ccc3ncn(CC(=O)N[C@@H](CCCNC(N)=O)C(=O)N[C@@H](Cc4c[nH]cn4)C(=O)N[C@@H](Cc4ccc(O)cc4)C(=O)N[C@@H](CC(C)C)C(=O)N[C@@H](CC(N)=O)C(=O)N[C@@H](Cc4c[nH]c5ccccc45)C(=O)N[C@H](C(=O)N[C@H](C(=O)N[C@@H](CCCNC(=N)N)C(=O)N[C@@H](CCC(N)=O)C(=O)N(C)[C@@H](CCCNC(=N)N)C(=O)N[C@@H](Cc4ccc(O)cc4)C(N)=O)[C@@H](C)O)C(C)C)c(=O)c3c2)CC1)[C@@H](C)CC [Example 30],5690,0.143,> 6000,> 6000,0.47,–
CCCCCCCCCCCCCCCC(=O)NCCCCCC(=O)N[C@H](C(=O)N[C@@H](CCCCNC(=O)CCOCCOCCOCCOCCOCCOCCOCCOCCOCCOCCOCCOC)C(=O)N1CCN(c2ccc3ncn(CC(=O)N[C@@H](CCCNC(N)=O)C(=O)N[C@@H](Cc4c[nH]cn4)C(=O)N[C@@H](Cc4ccc(O)cc4)C(=O)N[C@@H](CC(C)C)C(=O)N[C@@H](CC(N)=O)C(=O)N[C@@H](Cc4c[nH]c5ccccc45)C(=O)N[C@H](C(=O)N[C@H](C(=O)N[C@@H](CCCNC(=N)N)C(=O)N[C@@H](CCC(N)=O)C(=O)N(C)[C@@H](CCCNC(=N)N)C(=O)N[C@@H](Cc4ccc(O)cc4)C(N)=O)[C@@H](C)O)C(C)C)c(=O)c3c2)CC1)[C@@H](C)CC [Example 31],3510,0.111,> 6000,> 6000,0.37,–
CCCCCCCCCCCCCCCC(=O)NCCCCCC(=O)N[C@H](C(=O)N[C@@H](CCCCNC(=O)CCOCCOCCOCCOCCOCCOCCOCCOCCOCCOCCOCCOCCOCCOCCOCCOC)C(=O)N1CCN(c2ccc3ncn(CC(=O)N[C@@H](CCCNC(N)=O)C(=O)N[C@@H](Cc4c[nH]cn4)C(=O)N[C@@H](Cc4ccc(O)cc4)C(=O)N[C@@H](CC(C)C)C(=O)N[C@@H](CC(N)=O)C(=O)N[C@@H](Cc4c[nH]c5ccccc45)C(=O)N[C@H](C(=O)N[C@H](C(=O)N[C@@H](CCCNC(=N)N)C(=O)N[C@@H](CCC(N)=O)C(=O)N(C)[C@@H](CCCNC(=N)N)C(=O)N[C@@H](Cc4ccc(O)cc4)C(N)=O)[C@@H](C)O)C(C)C)c(=O)c3c2)CC1)[C@@H](C)CC [Example 32],4760,0.15,> 6000,> 6000,0.23,–
